4 substances from US20090247466A1, “NEUROPROTECTIVE INTEGRIN-BINDING PEPTIDE AND ANGIOPOIETIN-1 TREATMENTS” (University of Louisville Research Foundation, priority 2008, published 2009) can be followed below.

Data set [1] in a line: Blood cell counts after 7 days of treatment. The class given is in vivo, mice. More on the design: key to Leukocytes eosinophils / Leukocytes basophils / Erythrocytes / Leukocytes total / Leukocytes neutrophils / Leukocytes lymphocytes / Leukocytes monocytes: N = within the normal range. To be noted: daily C16 for 7 days after T9 contusion; individual mice A, B. Here is the method:
(§1) To determine potential effects of C16 on the number of peripheral leukocytes, 1 ml blood was drawn from the heart just before perfusion-fixation in mice that had been treated with vehicle (n=3) or C16 (n=2) for 7 days treated. The blood was collected in EDTA-coated tubes and blood counts were performed by Drew Scientific Inc. (Oxford, Conn.).
(§2) To determine potential effects of C16 on the number of peripheral leukocytes, 1 ml blood was drawn from the heart just before perfusion-fixation in mice that had been treated with vehicle or C16 for 7 days. The blood was collected in EDTA-coated tubes and blood counts were performed by Drew Scientific Inc. (Oxford, Conn.).

The test system of another data set is peripheral leukocytes. Briefly: Blood cell counts after 7 days of treatment. More on the design: key to Leukocytes eosinophils / Leukocytes basophils / Erythrocytes / Leukocytes total / Leukocytes neutrophils / Leukocytes lymphocytes / Leukocytes monocytes: N = within the normal range. It is filed as in vivo, mice. Here is the method: as §1, §2
Data set [2] has as its system C57BL/6 mice with spinal cord contusion at T9. The data set can be described thus: White matter sparing at the injury epicenter (eriochrome cyanine myelin staining) after spinal cord contusion. It is filed as in vivo. Here is the method: These mice were tested for overground locomotion using the Basso Mouse Scale (BMS) before the contusion and on the day of euthanasia.
To label endothelial cells of perfused blood vessels, 4 of the vehicle and 4 of the C16 mice received an intravenous injection of the lectin LEA 20 minutes before euthanasia.
To determine whether […] C16 would be neuroprotective, vehicle (n=8) or 100 μg/day C16 (n=9) was injected over 7 days. These mice were tested using the BMS before the contusion and on the last day.
To determine whether C16 had lasting neuroprotective effects, mice received daily injections with vehicle (n=8) or 100 μg/day C16 (n=9) for 14 days. […] These mice were evaluated every week by BMS and were euthanized after 6 weeks. […]
To detect myelin in white matter tracts, one of every five of the transverse sections at each rostro-caudal 1 mm level were stained with a modified eriochrome cyanine (EC) staining protocol (Rabchevsky et al., 2001, J Neurotrauma 18:513-522). […] The injury epicenter was determined for each mouse by the rostro-caudal level that contained the least amount of spared myelin per transverse section. […]
Sections were examined using a Leica DMIRE2 brightfield and fluorescence microscope and images digitized with an attached Spot RTKE camera (Diagnostics Inc., Sterling Height, Mich.). […] The area of LEA was determined with Scion Image. […]

Data set [3] has the same test system. Briefly: Overground locomotor function, Basso Mouse Scale (BMS), after spinal cord contusion. It is filed as in vivo.
Data set [4] has the same test system. Briefly: Blood vessel permeability: luciferase extravasated into the spinal cord at the injury site. It is filed as in vivo. Here is the method: Increased permeability contributes to tissue loss following SCI and was measured here by the amount of luciferase that extravasated into the spinal cord at the injury site after i.v. injection 20 minutes before analysis.

Data set [5] has the same test system. The data set can be described thus: Inflammation: CD45 and CD68 immunostained area after spinal cord contusion. It is filed as in vivo. As for the experimental part:
Adjacent sections at each mm level were processed for double- or triple immunofluorescent staining to detect CD45 (leukocytes), CD68 (activated microglia/macrophages), PECAM1 (endothelial cells), αv, β3 or α5β1 integrin, or in some cases laminin (to define the so-called heterodomain or area of tissue loss). Slides were warmed for 20 minutes on a slide warmer, a ring of wax applied around the sections with a PAP pen (Invitrogen™, Carlsbad, Calif.) and the slides rinsed in 0.1 M Tris-buffered saline (TBS) for 10 min. […] To measure the volume of tissue loss as determined by laminin staining in the horizontal sections, the sections were processed using an ABC-DAB staining protocol.
Sections were examined using a Leica DMIRE2 brightfield and fluorescence microscope and images digitized with an attached Spot RTKE camera (Diagnostics Inc., Sterling Height, Mich.). EC, CD45, CD68 and PECAM staining through the entire plane of the transverse sections was digitized using a 5× objective and the area occupied by the staining calculated for the three sections per rostro-caudal level by using the threshold feature of Scion Image software (Scion Corporation, Frederick, Md.). […] The area of LEA was determined with Scion Image. To provide a measure of the number of blood vessels, the number of LEA-positive vessels intersecting 100 μm spaced horizontal (5) and vertical (6) lines were counted in each image. […] The software calculated the volume based on the section interval and the area per section and this was expressed as a percentage of the total 10 mm segment. […]

The test system is the same in data set [6]. Briefly: Perfused (LEA lectin-labeled) blood vessels in the injury penumbra after spinal cord contusion. The class given is in vivo. To be noted: single i.v. injection immediately after injury; 24 hours.
Procedure: Normal (n=3) and 7 day sham operated mice (n=5) also received intravenous LEA injections.
To pre-label perfused blood vessels, 100 μg in 100 μl of FITC-conjugated LEA (Lectin from Lycopersicon esculentum; Sigma, St. Louis, Mo.) was injected into the other jugular vein 30 minutes before euthanasia.
Data set [7] addresses human αvβ3 integrin (human) (UniProt P06756). Briefly: cell-based or functional assay.
The subject of data set [8] is monocytic THP-1 cells across human aortic endothelial cells. Briefly: Transendothelial migration assay. It is filed as cell-based. To be noted: SP3 600 μM; absence or presence of TNFα. Here is the method: Human aortic endothelial cells (Lonza, Wakersville, Md.) were plated on permeable filters in Transwell® culture plates (Costar, Cambridge, Mass.) at 4×10^4 cells per well. They were grown for 72-96 hours to reach confluency at 37° C. in Dulbecco's modified Eagle's medium Ham's F-12 (DMEM F-12; BioWhittaker, Walkersville, Md.) plus EGM-2 growth factor supplements (EGM-2 SingleQuots™ from Lonza Walkersville Inc, containing hydrocortisone, hEGF, FBS, VEGF, hFGF-B, R3-IGF-1, ascorbic acid, heparin and gentamicin/amphotericin-B) and 10-20% fetal calf serum. Afterwards, the inner chamber of the Transwell® system was loaded with 2×10^5 monocytic THP-1 cells (American Type Culture Collection, Manassas, Va.) and preincubated in medium with or without 15 ng/ml of TNF-α (PeproTech, Rocky Hill, N.J.) for 5 hr at 37° C. C16 peptide was added into the medium of the inner chamber at 25, 50, 100, 200, 400, 600 μM, and SP3 was added at 600 μM. […] The monocytic THP-1 cells were allowed to transmigrate for 6 h at 37° C. and the number of THP-1 cells that crossed endothelial cell layer was counted. […]
Human aortic ECs (BioWhittaker, Walkersville, Md.) were plated on permeable filters in Transwell culture plates (Costar, Cambridge, Mass.) at 4×10^4 cells per well. […] THP-1 cells were allowed to transmigrate for 6 h at 37° C. and the number of THP-1 cells that crossed EC layer was counted. […]

[9] abbreviates: daily C16 for 7 days after T9 contusion, individual mice A, B.

Ends that are not written are not given here.

human αvβ3 integrin (human), sequence (P06756 31-1048, chain 1 of 2): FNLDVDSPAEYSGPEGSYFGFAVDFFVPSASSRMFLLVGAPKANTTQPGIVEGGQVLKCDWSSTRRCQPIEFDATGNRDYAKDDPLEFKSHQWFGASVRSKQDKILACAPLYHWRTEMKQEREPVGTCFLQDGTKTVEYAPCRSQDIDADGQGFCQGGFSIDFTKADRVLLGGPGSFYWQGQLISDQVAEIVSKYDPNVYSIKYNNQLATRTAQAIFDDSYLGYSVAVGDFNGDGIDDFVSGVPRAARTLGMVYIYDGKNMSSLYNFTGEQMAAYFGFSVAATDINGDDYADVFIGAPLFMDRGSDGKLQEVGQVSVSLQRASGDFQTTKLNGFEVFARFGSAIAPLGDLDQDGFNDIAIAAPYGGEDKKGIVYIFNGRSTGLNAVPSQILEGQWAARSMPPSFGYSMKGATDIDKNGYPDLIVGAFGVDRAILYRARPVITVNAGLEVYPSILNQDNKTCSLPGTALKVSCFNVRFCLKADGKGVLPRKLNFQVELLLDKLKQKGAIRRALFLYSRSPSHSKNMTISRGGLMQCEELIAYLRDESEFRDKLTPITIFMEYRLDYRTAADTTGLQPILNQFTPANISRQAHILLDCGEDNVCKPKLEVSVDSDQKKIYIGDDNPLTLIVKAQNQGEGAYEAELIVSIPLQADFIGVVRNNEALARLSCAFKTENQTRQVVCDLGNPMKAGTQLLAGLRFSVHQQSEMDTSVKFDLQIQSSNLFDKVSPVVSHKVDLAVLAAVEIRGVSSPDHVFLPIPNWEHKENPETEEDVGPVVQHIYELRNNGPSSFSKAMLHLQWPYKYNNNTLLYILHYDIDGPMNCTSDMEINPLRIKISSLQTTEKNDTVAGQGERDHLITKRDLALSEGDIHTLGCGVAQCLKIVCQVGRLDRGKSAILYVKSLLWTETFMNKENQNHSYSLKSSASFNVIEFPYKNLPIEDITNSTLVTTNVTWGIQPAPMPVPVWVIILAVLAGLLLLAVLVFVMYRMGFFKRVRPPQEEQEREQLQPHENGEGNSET
human αvβ3 integrin (human), sequence (P05106 27-788, chain 2 of 2, further chain): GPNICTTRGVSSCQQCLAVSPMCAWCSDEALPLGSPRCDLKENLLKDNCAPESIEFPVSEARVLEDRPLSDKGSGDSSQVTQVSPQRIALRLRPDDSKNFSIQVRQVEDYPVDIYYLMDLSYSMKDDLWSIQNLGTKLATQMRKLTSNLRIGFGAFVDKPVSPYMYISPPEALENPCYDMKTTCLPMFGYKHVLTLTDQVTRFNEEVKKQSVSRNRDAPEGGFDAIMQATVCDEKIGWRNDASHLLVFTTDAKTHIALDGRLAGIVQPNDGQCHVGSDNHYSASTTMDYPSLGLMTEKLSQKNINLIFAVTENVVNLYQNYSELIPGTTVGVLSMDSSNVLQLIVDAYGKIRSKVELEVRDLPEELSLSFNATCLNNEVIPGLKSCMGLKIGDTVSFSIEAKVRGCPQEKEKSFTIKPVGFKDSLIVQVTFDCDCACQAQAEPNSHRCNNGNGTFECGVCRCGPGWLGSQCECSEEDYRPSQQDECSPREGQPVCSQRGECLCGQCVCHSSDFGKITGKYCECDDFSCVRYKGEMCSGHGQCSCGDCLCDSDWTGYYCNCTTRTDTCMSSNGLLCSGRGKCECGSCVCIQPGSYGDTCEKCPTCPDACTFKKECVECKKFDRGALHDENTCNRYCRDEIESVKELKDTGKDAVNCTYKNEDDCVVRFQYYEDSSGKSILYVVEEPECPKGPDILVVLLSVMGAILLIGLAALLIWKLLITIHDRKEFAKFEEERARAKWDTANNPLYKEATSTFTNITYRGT

“KAFDITYVRLKF [C16, KAFDITYVRLKF (SEQ ID NO:2)]”: the Erythrocytes result in [1] is “N”. In the data set on peripheral leukocytes (setting [9]), the Leukocytes basophils result was “N”, the Leukocytes eosinophils entry is given as “N”, the Leukocytes lymphocytes result is listed as “N” and the Leukocytes monocytes entry is listed as “N”. Also, in the data set on peripheral leukocytes (setting [9]), the Leukocytes neutrophils result was “N”, the Leukocytes total result is recorded as “N” and the Thrombocytes result was “low”. Moreover, the white cell counts result in the data set with peripheral leukocytes (treated for 7 days) was “within normal range”.

Turning to “Angiopoietin-1 tetra-fibrinogen-like domain [Ang-1]”, the “cross-sectional area of white matter at the epicenter compared with vehicle” value in data set [2] (7 and 42 day post-injury times) is given as “greater”. The “BMS score (9 point scale)” value in [3] (100 μg/day i.v. for 7 days starting 4 hours after injury, behavioral analyses over 6 weeks) came to 5.5. The “mice with a BMS score of 7 or above” value in [3] (i.v. for 7 days, at 43 days) is on record as 4/14. In data set [3] (last two weeks of testing (5 and 6 weeks after injury)), the “mice with a BMS score of 7 and above” value is on record as 28%. The “luciferase values versus vehicle” value in [4] (24 hours following SCI) was “not different”. Further, the “luciferase values, of vehicle” value in data set [4] (72 hours following SCI) stood at 55±13%. The “smaller area of CD68 staining than vehicle treated mice” value in data set [5] (24 hours, 3 mm rostral to 3 mm caudal from the epicenter) is given as ~25%. In data set [5] (all post-injury times, 3 mm rostral to 3 mm caudal from the epicenter), the “inflammation (CD45, CD68 area) compared with vehicle” value is listed as “reduced inflammation”. In addition, in [6], the “number of LEA-positive blood vessels in the penumbra, of sham” value was 40%.

In data set [7], “azide-free blocking antibody against human αvβ3 (Cat# MAB1976Z, Chemicon; also known as LM609)” came in with a monocyte (THP-1) transmigration across an endothelial cell layer, blocking antibody, with TNFα, without C16 of 64% and a monocyte transmigration across an EC layer, reduction by blocking antibody of 36%.

For the substance “RFSVAVSSHYPFWSR (SEQ ID NO:3) [SP3, reference compound]”, the “white matter cross-sectional area at the injury epicenter, percent of sham-operated mice” value in data set [2] (100 μg/day i.v. daily for 7 days, 7 days after contusion) turned out to be 30±5%. The BMS score in data set [3] (100 μg/day i.v. daily for 7 days, 7 days following injury) was 0.7±0.3. Further, the “effect on the inflammatory response” value in data set [5] (control peptide 100 μg/day, at 7 days) is on record as “no significant effect”. Further, the “effect on monocyte transmigration” value in [8] is reported as “no significant effect”.
